Measured values published in patent US11759455B2, “Substituted 1H-imidazo[4,5-b]pyridin-2(3H)-ones and their use as GLUN2B receptor modulators” (JANSSEN PHARMACEUTICA NV, priority 2016, dated 2023).

These molecules were tested against T1, human GluN1/GluN2B NMDA receptors (Homo sapiens, UniProt Q05586+Q13224) (assay: Cell-based calcium flux (FLIPR) assay on cloned human NR1/NR2B ion channels expressed in mammalian cells (standard and HTS buffer variants)). Conditions: HTS assay buffer (1.5 mM MgCl2 dye loading; 150 mM NaCl, 3 mM KCl assay buffer), human GluN1/GluN2B cells, read-out: NR2B IC50 (μM) HTS assay.
T1 construct: expressed in transfected cells
T1 sequence (Q13224 27-1484, other chains not shown): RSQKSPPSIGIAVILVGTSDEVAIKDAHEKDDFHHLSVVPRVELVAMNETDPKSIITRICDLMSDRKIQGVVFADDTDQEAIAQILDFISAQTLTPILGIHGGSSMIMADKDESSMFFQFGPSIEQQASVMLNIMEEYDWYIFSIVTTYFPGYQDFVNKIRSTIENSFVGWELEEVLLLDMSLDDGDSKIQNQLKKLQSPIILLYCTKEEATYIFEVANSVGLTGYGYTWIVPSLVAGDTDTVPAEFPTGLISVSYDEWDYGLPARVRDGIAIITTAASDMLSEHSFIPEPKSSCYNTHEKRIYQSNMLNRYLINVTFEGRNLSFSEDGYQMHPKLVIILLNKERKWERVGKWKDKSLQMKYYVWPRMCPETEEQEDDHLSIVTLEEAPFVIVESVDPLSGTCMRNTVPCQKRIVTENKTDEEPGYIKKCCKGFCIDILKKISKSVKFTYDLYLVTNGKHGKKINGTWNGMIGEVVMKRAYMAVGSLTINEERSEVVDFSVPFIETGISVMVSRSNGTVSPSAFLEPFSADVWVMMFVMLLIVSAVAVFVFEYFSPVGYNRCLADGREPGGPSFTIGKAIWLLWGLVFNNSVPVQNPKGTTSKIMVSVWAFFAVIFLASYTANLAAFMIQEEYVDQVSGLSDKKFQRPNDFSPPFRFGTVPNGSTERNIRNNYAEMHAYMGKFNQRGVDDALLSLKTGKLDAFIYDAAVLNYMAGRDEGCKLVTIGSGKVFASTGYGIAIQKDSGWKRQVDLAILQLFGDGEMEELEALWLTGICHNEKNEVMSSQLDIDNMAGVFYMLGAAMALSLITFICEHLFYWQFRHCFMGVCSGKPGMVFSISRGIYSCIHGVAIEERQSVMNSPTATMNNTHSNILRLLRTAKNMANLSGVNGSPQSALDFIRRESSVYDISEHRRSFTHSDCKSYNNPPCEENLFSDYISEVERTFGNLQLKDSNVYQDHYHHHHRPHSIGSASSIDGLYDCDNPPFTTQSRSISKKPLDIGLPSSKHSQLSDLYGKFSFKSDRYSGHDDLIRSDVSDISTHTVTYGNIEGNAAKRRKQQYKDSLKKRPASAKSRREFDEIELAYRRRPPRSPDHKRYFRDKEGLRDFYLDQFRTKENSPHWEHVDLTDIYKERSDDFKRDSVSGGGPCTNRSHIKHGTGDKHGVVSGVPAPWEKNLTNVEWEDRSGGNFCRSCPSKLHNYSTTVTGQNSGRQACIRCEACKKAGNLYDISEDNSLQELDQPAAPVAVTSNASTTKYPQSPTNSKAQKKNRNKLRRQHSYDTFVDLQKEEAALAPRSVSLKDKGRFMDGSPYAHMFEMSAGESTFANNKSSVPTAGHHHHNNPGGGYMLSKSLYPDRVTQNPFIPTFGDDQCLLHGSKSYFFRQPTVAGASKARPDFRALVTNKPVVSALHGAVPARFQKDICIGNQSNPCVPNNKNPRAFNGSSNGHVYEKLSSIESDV
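Note: stable Tet-On inducible cell line, Ca2+ influx triggered by glutamate at about EC40 plus 10 µM glycine, fluorescent dye read-out over 5 min, normalized to control wells.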

| Compound | IC50 |
| --- | --- |
| CCC(O)Cn1c(=O)[nH]c2ncc(-c3ccc(F)cc3C)cc21 (single isomer, unassigned) [Example 43, (R*)-6-(4-Fluoro-2-methyl-phenyl)-1-(2-hydroxybutyl)-3H-imidazo[4,5-b]pyridin-2-one] | 3.49 µM |
| CCC(O)Cn1c(=O)[nH]c2ncc(-c3ccc(F)cc3C)cc21 (single isomer, unassigned) [Example 44, (S*)-6-(4-Fluoro-2-methyl-phenyl)-1-(2-hydroxybutyl)-3H-imidazo[4,5-b]pyridin-2-one] | 0.325 µM |

Same assay, conditions: standard assay buffer (0.5 mM MgCl2 dye loading; 137 mM NaCl, 4 mM KCl assay buffer), human GluN1/GluN2B cells, read-out: NR2B IC50 (μM) standard assay

| Compound | IC50 |
| --- | --- |
| O=c1[nH]c2ncc(-c3cccc(C(F)(F)F)c3)cc2n1CC(O)C1CC1 (racemic) [Example 31, (R/S)-1-(2-Cyclopropyl-2-hydroxy-ethyl)-6-[3-(trifluoromethyl)phenyl]-3H-imidazo[4,5-b]pyridin-2-one] | 0.151 µM |
| Cc1cc(F)ccc1-c1cnc2c(c1)n(CC1CCO1)c(=O)n2C (racemic) [Example 33, (R/S)-6-(4-Fluoro-2-methyl-phenyl)-3-methyl-1-(oxetan-2-ylmethyl)imidazo[4,5-b]pyridin-2-one] | 1.23 µM |
| Cn1c(=O)n(CC2CCO2)c2cc(-c3cccc(C(F)(F)F)c3)cnc21 (racemic) [Example 133, (R/S)-3-methyl-1-(oxetan-2-ylmethyl)-6-[3-(trifluoromethyl)phenyl]imidazo[4,5-b]pyridin-2-one] | 0.211 µM |
| CC(C(=O)NC1CC1)n1c(=O)[nH]c2ncc(-c3cccc(C(F)(F)F)c3)cc21 (racemic) [Example 202, (R/S)—N-Cyclopropyl-2-[2-oxo-6-[3-(trifluoromethyl)phenyl]-3H-imidazo[4,5-b]pyridin-1-yl]propanamide] | 7.32 µM |
| CC(C(=O)N1CCC1)n1c(=O)[nH]c2ncc(-c3cccc(C(F)(F)F)c3)cc21 (racemic) [Example 203, (R/S)-1-[2-(Azetidin-1-yl)-1-methyl-2-oxo-ethyl]-6-[3-(trifluoromethyl)phenyl]-3H-imidazo[4,5-1D]pyridin-2-one] | 1.1 µM |
| O=c1[nH]c2ncc(-c3cccc(C(F)(F)F)c3)cc2n1CC1CCO1 (racemic) [Example 216, (R/S)-1-(Oxetan-2-ylmethyl)-6-[3-(trifluoromethyl)phenyl]-3H-imidazo[4,5-b]pyridin-2-one] | 0.034 µM |
| O=c1[nH]c2ncc(-c3cccc(C(F)(F)F)c3)cc2n1CC1CNCCO1 (racemic) [Example 217, (R/S)-1-(Morpholin-2-ylmethyl)-6-[3-(trifluoromethyl)phenyl]-3H-imidazo[4,5-b]pyridin-2-one] | 6.49 µM |
| O=c1[nH]c2ncc(-c3cccc(C(F)(F)F)c3)cc2n1CC1CCCCO1 (racemic) [Example 218, (R/S)-1-(Tetrahydropyran-2-ylmethyl)-6-[3-(trifluoromethyl)phenyl]-3H-imidazo[4,5-b]pyridin-2-one] | 0.552 µM |
| O=c1[nH]c2ncc(-c3cccc(C(F)(F)F)c3)cc2n1CC1CC1(F)F (racemic) [Example 225, (R/S)-1-[(2,2-Difluorocyclopropyl)methyl]-6-[3-(trifluoromethyl)phenyl]-3H-imidazo[4,5-b]pyridin-2-one] | 0.4 µM |
| Cn1c(=O)n(CC2CCN2)c2cc(-c3cccc(C(F)(F)F)c3)cnc21 (racemic) [Example 245, (R/S)-1-(Azetidin-2-ylmethyl)-3-methyl-6-[3-(trifluoromethyl)phenyl]imidazo[4,5-b]pyridin-2-one] | 0.409 µM |
| O=c1[nH]c2ncc(-c3cccc(C(F)(F)F)c3)cc2n1CC1CCN1 (racemic) [Example 263, (R/S)-1-(Azetidin-2-ylmethyl)-6-[3-(trifluoromethyl)phenyl]-3H-imidazo[4,5-b]pyridin-2-one] | 0.063 µM |
| O=c1[nH]c2ncc(-c3cccc(C(F)(F)F)c3F)cc2n1CC1CCN1 (racemic) [Example 264, (R/S)-1-(Azetidin-2-ylmethyl)-6-[2-fluoro-3-(trifluoromethyl)phenyl]-3H-imidazo[4,5-b]pyridin-2-one] | 0.044 µM |
| O=c1[nH]c2ncc(-c3ccccc3)cc2n1CC1CCN1 (racemic) [Example 265, (R/S)-1-(Azetidin-2-ylmethyl)-6-phenyl-3H-imidazo[4,5-b]pyridin-2-one] | 0.397 µM |
| O=c1[nH]c2ncc(-c3ccc(F)cc3)cc2n1CC1CCN1 (racemic) [Example 266, (R/S)-1-(Azetidin-2-ylmethyl)-6-(4-fluorophenyl)-3H-imidazo[4,5-b]pyridin-2-one] | 0.173 µM |
| O=c1[nH]c2ncc(-c3ccc(F)c(C(F)(F)F)c3)cc2n1CC1CCN1 (racemic) [Example 267, (R/S)-1-(Azetidin-2-ylmethyl)-6-[4-fluoro-3-(trifluoromethyl)phenyl]-3H-imidazo[4,5-b]pyridin-2-one] | 0.442 µM |
| O=c1[nH]c2ncc(-c3cccc(Cl)c3Cl)cc2n1CC1CCN1 (racemic) [Example 268, (R/S)-1-(Azetidin-2-ylmethyl)-6-(2,3-dichlorophenyl)-3H-imidazo[4,5-b]pyridin-2-one] | 0.041 µM |
| O=c1[nH]c2ncc(-c3ccc(F)c(C(F)(F)F)c3)cc2n1CC1CCO1 (racemic) [Example 271, (R/S)-6-[4-Fluoro-3-(trifluoromethyl)phenyl]-1-(oxetan-2-ylmethyl)-3H-imidazo[4,5-b]pyridin-2-one] | 0.046 µM |
| CCC(O)Cn1c(=O)[nH]c2ncc(-c3ccc(OC)cc3)cc21 (single isomer, unassigned) [Example 4, (S*)-1-(2-Hydroxybutyl)-6-(4-methoxyphenyl)-3H-imidazo[4,5-b]pyridin-2-one] | 0.32 µM |
| O=c1[nH]c2ncc(-c3cccc(C(F)(F)F)c3)cc2n1CC1CCO1 (single isomer, unassigned) [Example 223, (R*)-1-(Oxetan-2-ylmethyl)-6-[3-(trifluoromethyl)phenyl]-3H-imidazo[4,5-b]pyridin-2-one] | 0.036 µM |
| O=c1[nH]c2ncc(-c3cccc(C(F)(F)F)c3)cc2n1CC1CCO1 (single isomer, unassigned) [Example 224, (S*)-1-(Oxetan-2-ylmethyl)-6-[3-(trifluoromethyl)phenyl]-3H-imidazo[4,5-b]pyridin-2-one] | 0.054 µM |

Same assay, conditions: standard assay buffer (0.5 mM MgCl2 in dye loading buffer; 137 mM NaCl, 4 mM KCl in assay buffer), human GluN1/GluN2B, read-out: NR2B IC50 (μM) standard assay

| Compound | IC50 |
| --- | --- |
| CCC(O)Cn1c(=O)n(C)c2ncc(-c3ccc(F)c(F)c3)cc21 (racemic) [Example 333, (R/S)-6-(3,4-Difluorophenyl)-1-(2-hydroxybutyl)-3-methyl-imidazo[4,5-b]pyridin-2-one] | 1.9 µM |
| CCC(O)Cn1c(=O)[nH]c2ncc(-c3ccc(F)c(C)c3)cc21 (racemic) [Example 334, (R/S)-6-(4-Fluoro-3-methyl-phenyl)-1-(2-hydroxybutyl)-3H-imidazo[4,5-b]pyridin-2-one] | 0.031 µM |
| CCC(O)Cn1c(=O)[nH]c2ncc(-c3cccc(C)c3)cc21 (racemic) [Example 335, (R/S)-1-(2-Hydroxybutyl)-6-(m-tolyl)-3H-imidazo[4,5-b]pyridin-2-one] | 0.054 µM |
| CCC(O)Cn1c(=O)[nH]c2ncc(-c3ccc(F)c(C)c3F)cc21 (racemic) [Example 336, (R/S)-6-(2,4-Difluoro-3-methyl-phenyl)-1-(2-hydroxybutyl)-3H-imidazo[4,5-b]pyridin-2-one] | 0.015 µM |
| CCC(O)Cn1c(=O)[nH]c2ncc(-c3cccc(C(F)(F)F)c3)cc21 (racemic) [Example 337, (R/S)-1-(2-Hydroxybutyl)-6-[3-(trifluoromethyl)phenyl]-3H-imidazo[4,5-b]pyridin-2-one] | 0.119 µM |
| CC(C)C(O)Cn1c(=O)[nH]c2ncc(-c3cccc(C(F)(F)F)c3)cc21 (racemic) [Example 338, (R/S)-1-(2-Hydroxy-3-methyl-butyl)-6-[3-(trifluoromethyl)phenyl]-3H-imidazo[4,5-b]pyridin-2-one] | 0.687 µM |
| COCCC(O)Cn1c(=O)n(C)c2ncc(-c3ccc(F)c(C)c3)cc21 (racemic) [Example 393, (R/S)-6-(4-Fluoro-3-methyl-phenyl)-1-(2-hydroxy-4-methoxy-butyl)-3-methyl-imidazo[4,5-b]pyridin-2-one] | 0.486 µM |
| Cn1c(=O)n(CC2CCO2)c2cc(-c3cccc(C(F)F)c3)cnc21 (racemic) [Example 394, (R/S)-6-[3-(Difluoromethyl)phenyl]-3-methyl-1-(oxetan-2-ylmethyl)imidazo [4,5-b]pyridin-2-one] | 0.128 µM |
| Cc1cc(-c2cnc3c(c2)n(CC2CCO2)c(=O)n3C)ccc1F (racemic) [Example 395, (R/S)-6-(4-Fluoro-3-methyl-phenyl)-3-methyl-1-(oxetan-2-ylmethyl)imidazo[4,5-b]pyridin-2-one] | 1.2 µM |
| Cn1c(=O)n(CC2CCO2)c2cc(-c3cccc(C(F)(F)F)c3F)cnc21 (racemic) [Example 396, (R/S)-6-[2-Fluoro-3-(trifluoromethyl)phenyl]-3-methyl-1-(oxetan-2-ylmethyl)imidazo[4,5-b]pyridin-2-one] | 0.135 µM |
| Cn1c(=O)n(CC2CCO2)c2cc(-c3cccc(Cl)c3)cnc21 (racemic) [Example 397, (R/S)-6-(3-Chlorophenyl)-3-methyl-1-(oxetan-2-ylmethyl)imidazo[4,5-b]pyridin-2-one] | 0.228 µM |
| Cc1c(-c2cnc3c(c2)n(CC2CCO2)c(=O)n3C)cccc1C(F)(F)F (racemic) [Example 398, (R/S)-3-Methyl-6-[2-methyl-3-(trifluoromethyl)phenyl]-1-(oxetan-2-ylmethyl)imidazo[4,5-b]pyridin-2-one] | 2.84 µM |
| Cc1c(-c2cnc3c(c2)n(CC(O)CCO)c(=O)n3C)cccc1C(F)(F)F (racemic) [Example 399, (R/S)-1-(2,4-Dihydroxybutyl)-3-methyl-6-[2-methyl-3-(trifluoromethyl)phenyl]imidazo[4,5-b]pyridin-2-one] | 5.1 µM |
